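Growth conditions: 96-well plates. Treatment: test compound, 48 hours, 5 concentrations. Analysis: linear interpolation between bracketing concentrations; unreached endpoints set to highest concentration. TGI is the concentration that stops growth completely.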
Tested on: ACHN renal
Assay: growth of human tumour cells (NCI), 48 h

Compound | TGI [µM]
Cc1cc(Cl)ccc1N=C1NC(=O)C(CC(=O)Nc2ccc([N+](=O)[O-])cc2[N+](=O)[O-])S1 (configuration not stated) | 71.4
N#CC(NNC(=O)Cc1ccccc1)c1c(O)ccc2ccccc12 (configuration not stated) | 20.2
Cc1ccn2c(c1)nc1nc3ccccc3nc12 | > 100
O=c1cc(-c2ccc(F)cc2)[nH]c2ncc(Cl)cc12 | > 100
COC1C=CC(O)C(CO)O1 (configuration not stated) | > 100

Tested on: MOLT-4 leukemia
Assay: growth of human tumour cells (NCI), 48 h

Compound | TGI [µM]
O=C(Cc1ccccc1)NN1C(=O)C(Cl)C1c1cc(Br)ccc1O (configuration not stated) | 8.07
Cc1cc(Cl)ccc1N=C1NC(=O)C(CC(=O)Nc2ccc([N+](=O)[O-])cc2[N+](=O)[O-])S1 (configuration not stated) | 55.5
N#CC(NNC(=O)Cc1ccccc1)c1c(O)ccc2ccccc12 (configuration not stated) | > 48.3
COc1cc(C2C(Cl)C(=O)N2NC(=O)c2ccc(NC(C)=O)cc2)cc(OC)c1OC (configuration not stated) | > 100
O=c1cc(-c2ccc(F)cc2)[nH]c2ncc(Cl)cc12 | > 85.6
COC1C=CC(O)C(CO)O1 (configuration not stated) | > 100

Tested on: MDA-MB-231 breast
Assay: growth of human tumour cells (NCI), 48 h

Compound | TGI [µM]
N#CC(NNC(=O)Cc1ccccc1)c1c(O)ccc2ccccc12 (configuration not stated) | 58.9
O=c1cc(-c2ccc(F)cc2)[nH]c2ncc(Cl)cc12 | > 100

Tested on: MDA-MB-435
Assay: growth of human tumour cells (NCI), 48 h

Compound | TGI [µM]
N#CC(NNC(=O)Cc1ccccc1)c1c(O)ccc2ccccc12 (configuration not stated) | 84.1
O=c1cc(-c2ccc(F)cc2)[nH]c2ncc(Cl)cc12 | 9.85

Tested on: HOP-62 NSCLC
Assay: growth of human tumour cells (NCI), 48 h

Compound | TGI [µM]
O=C(Cc1ccccc1)NN1C(=O)C(Cl)C1c1cc(Br)ccc1O (configuration not stated) | 52.9
Cc1cc(Cl)ccc1N=C1NC(=O)C(CC(=O)Nc2ccc([N+](=O)[O-])cc2[N+](=O)[O-])S1 (configuration not stated) | 85
N#CC(NNC(=O)Cc1ccccc1)c1c(O)ccc2ccccc12 (configuration not stated) | 59.2
COc1cc(C2C(Cl)C(=O)N2NC(=O)c2ccc(NC(C)=O)cc2)cc(OC)c1OC (configuration not stated) | > 100
Cc1ccn2c(c1)nc1nc3ccccc3nc12 | > 100
O=c1cc(-c2ccc(F)cc2)[nH]c2ncc(Cl)cc12 | > 93.2
COC1C=CC(O)C(CO)O1 (configuration not stated) | > 100

Tested on: OVCAR-4 ovarian
Assay: growth of human tumour cells (NCI), 48 h

Compound | TGI [µM]
O=C(Cc1ccccc1)NN1C(=O)C(Cl)C1c1cc(Br)ccc1O (configuration not stated) | > 100
Cc1cc(Cl)ccc1N=C1NC(=O)C(CC(=O)Nc2ccc([N+](=O)[O-])cc2[N+](=O)[O-])S1 (configuration not stated) | 56.3
N#CC(NNC(=O)Cc1ccccc1)c1c(O)ccc2ccccc12 (configuration not stated) | 51
Cc1ccn2c(c1)nc1nc3ccccc3nc12 | > 100
O=c1cc(-c2ccc(F)cc2)[nH]c2ncc(Cl)cc12 | > 100
COC1C=CC(O)C(CO)O1 (configuration not stated) | > 100

Tested on: RPMI-8226 leukemia
Assay: growth of human tumour cells (NCI), 48 h

Compound | TGI [µM]
O=C(Cc1ccccc1)NN1C(=O)C(Cl)C1c1cc(Br)ccc1O (configuration not stated) | > 100
Cc1cc(Cl)ccc1N=C1NC(=O)C(CC(=O)Nc2ccc([N+](=O)[O-])cc2[N+](=O)[O-])S1 (configuration not stated) | 53.6
N#CC(NNC(=O)Cc1ccccc1)c1c(O)ccc2ccccc12 (configuration not stated) | > 60.1
COc1cc(C2C(Cl)C(=O)N2NC(=O)c2ccc(NC(C)=O)cc2)cc(OC)c1OC (configuration not stated) | > 100
Cc1ccn2c(c1)nc1nc3ccccc3nc12 | > 100
O=c1cc(-c2ccc(F)cc2)[nH]c2ncc(Cl)cc12 | 62.4

Tested on: T-47D breast
Assay: growth of human tumour cells (NCI), 48 h

Compound | TGI [µM]
N#CC(NNC(=O)Cc1ccccc1)c1c(O)ccc2ccccc12 (configuration not stated) | 60.4
O=c1cc(-c2ccc(F)cc2)[nH]c2ncc(Cl)cc12 | > 100

Tested on: XF 498 CNS
Assay: growth of human tumour cells (NCI), 48 h

Compound | TGI [µM]
O=C(Cc1ccccc1)NN1C(=O)C(Cl)C1c1cc(Br)ccc1O (configuration not stated) | > 100
Cc1cc(Cl)ccc1N=C1NC(=O)C(CC(=O)Nc2ccc([N+](=O)[O-])cc2[N+](=O)[O-])S1 (configuration not stated) | 53.6
Cc1ccn2c(c1)nc1nc3ccccc3nc12 | > 100
COC1C=CC(O)C(CO)O1 (configuration not stated) | > 100

Tested on: SNB-19 CNS
Assay: growth of human tumour cells (NCI), 48 h

Compound | TGI [µM]
O=C(Cc1ccccc1)NN1C(=O)C(Cl)C1c1cc(Br)ccc1O (configuration not stated) | 47.9
Cc1cc(Cl)ccc1N=C1NC(=O)C(CC(=O)Nc2ccc([N+](=O)[O-])cc2[N+](=O)[O-])S1 (configuration not stated) | 73.2
N#CC(NNC(=O)Cc1ccccc1)c1c(O)ccc2ccccc12 (configuration not stated) | > 64.4
COc1cc(C2C(Cl)C(=O)N2NC(=O)c2ccc(NC(C)=O)cc2)cc(OC)c1OC (configuration not stated) | > 100
Cc1ccn2c(c1)nc1nc3ccccc3nc12 | > 100
O=c1cc(-c2ccc(F)cc2)[nH]c2ncc(Cl)cc12 | > 100

Tested on: SNB-78 CNS
Assay: growth of human tumour cells (NCI), 48 h

Compound | TGI [µM]
O=C(Cc1ccccc1)NN1C(=O)C(Cl)C1c1cc(Br)ccc1O (configuration not stated) | 91.8
Cc1cc(Cl)ccc1N=C1NC(=O)C(CC(=O)Nc2ccc([N+](=O)[O-])cc2[N+](=O)[O-])S1 (configuration not stated) | 73.6
N#CC(NNC(=O)Cc1ccccc1)c1c(O)ccc2ccccc12 (configuration not stated) | 72
Cc1ccn2c(c1)nc1nc3ccccc3nc12 | > 100
COC1C=CC(O)C(CO)O1 (configuration not stated) | > 100

Tested on: SF-268 CNS
Assay: growth of human tumour cells (NCI), 48 h

Compound | TGI [µM]
O=C(Cc1ccccc1)NN1C(=O)C(Cl)C1c1cc(Br)ccc1O (configuration not stated) | 50
Cc1cc(Cl)ccc1N=C1NC(=O)C(CC(=O)Nc2ccc([N+](=O)[O-])cc2[N+](=O)[O-])S1 (configuration not stated) | > 100
N#CC(NNC(=O)Cc1ccccc1)c1c(O)ccc2ccccc12 (configuration not stated) | 54.5
COc1cc(C2C(Cl)C(=O)N2NC(=O)c2ccc(NC(C)=O)cc2)cc(OC)c1OC (configuration not stated) | > 100
Cc1ccn2c(c1)nc1nc3ccccc3nc12 | > 100
O=c1cc(-c2ccc(F)cc2)[nH]c2ncc(Cl)cc12 | > 100

Tested on: HOP-92 NSCLC
Assay: growth of human tumour cells (NCI), 48 h

Compound | TGI [µM]
N#CC(NNC(=O)Cc1ccccc1)c1c(O)ccc2ccccc12 (configuration not stated) | 41.3
COc1cc(C2C(Cl)C(=O)N2NC(=O)c2ccc(NC(C)=O)cc2)cc(OC)c1OC (configuration not stated) | > 100
Cc1ccn2c(c1)nc1nc3ccccc3nc12 | > 100
O=c1cc(-c2ccc(F)cc2)[nH]c2ncc(Cl)cc12 | 65.4
COC1C=CC(O)C(CO)O1 (configuration not stated) | > 100

Tested on: MALME-3M melanoma
Assay: growth of human tumour cells (NCI), 48 h

Compound | TGI [µM]
O=C(Cc1ccccc1)NN1C(=O)C(Cl)C1c1cc(Br)ccc1O (configuration not stated) | > 100
Cc1cc(Cl)ccc1N=C1NC(=O)C(CC(=O)Nc2ccc([N+](=O)[O-])cc2[N+](=O)[O-])S1 (configuration not stated) | 73.2
N#CC(NNC(=O)Cc1ccccc1)c1c(O)ccc2ccccc12 (configuration not stated) | 30.2
COc1cc(C2C(Cl)C(=O)N2NC(=O)c2ccc(NC(C)=O)cc2)cc(OC)c1OC (configuration not stated) | > 100
O=c1cc(-c2ccc(F)cc2)[nH]c2ncc(Cl)cc12 | > 100
COC1C=CC(O)C(CO)O1 (configuration not stated) | > 100

Tested on: NCI/ADR-RES ovarian
Assay: growth of human tumour cells (NCI), 48 h

Compound | TGI [µM]
N#CC(NNC(=O)Cc1ccccc1)c1c(O)ccc2ccccc12 (configuration not stated) | 16
O=c1cc(-c2ccc(F)cc2)[nH]c2ncc(Cl)cc12 | > 88

Tested on: RXF 393 renal
Assay: growth of human tumour cells (NCI), 48 h

Compound | TGI [µM]
O=C(Cc1ccccc1)NN1C(=O)C(Cl)C1c1cc(Br)ccc1O (configuration not stated) | > 100
N#CC(NNC(=O)Cc1ccccc1)c1c(O)ccc2ccccc12 (configuration not stated) | 41.9
Cc1ccn2c(c1)nc1nc3ccccc3nc12 | > 100
O=c1cc(-c2ccc(F)cc2)[nH]c2ncc(Cl)cc12 | 89.2
COC1C=CC(O)C(CO)O1 (configuration not stated) | > 100

Tested on: UO-31 renal
Assay: growth of human tumour cells (NCI), 48 h

Compound | TGI [µM]
O=C(Cc1ccccc1)NN1C(=O)C(Cl)C1c1cc(Br)ccc1O (configuration not stated) | 46.8
Cc1cc(Cl)ccc1N=C1NC(=O)C(CC(=O)Nc2ccc([N+](=O)[O-])cc2[N+](=O)[O-])S1 (configuration not stated) | 42.6
N#CC(NNC(=O)Cc1ccccc1)c1c(O)ccc2ccccc12 (configuration not stated) | 11.2
COc1cc(C2C(Cl)C(=O)N2NC(=O)c2ccc(NC(C)=O)cc2)cc(OC)c1OC (configuration not stated) | > 100
Cc1ccn2c(c1)nc1nc3ccccc3nc12 | > 100
O=c1cc(-c2ccc(F)cc2)[nH]c2ncc(Cl)cc12 | > 100
COC1C=CC(O)C(CO)O1 (configuration not stated) | > 100

Tested on: IGROV1 ovarian
Assay: growth of human tumour cells (NCI), 48 h

Compound | TGI [µM]
O=C(Cc1ccccc1)NN1C(=O)C(Cl)C1c1cc(Br)ccc1O (configuration not stated) | > 100
Cc1cc(Cl)ccc1N=C1NC(=O)C(CC(=O)Nc2ccc([N+](=O)[O-])cc2[N+](=O)[O-])S1 (configuration not stated) | > 100
N#CC(NNC(=O)Cc1ccccc1)c1c(O)ccc2ccccc12 (configuration not stated) | > 76.8
COc1cc(C2C(Cl)C(=O)N2NC(=O)c2ccc(NC(C)=O)cc2)cc(OC)c1OC (configuration not stated) | > 100
Cc1ccn2c(c1)nc1nc3ccccc3nc12 | > 100
O=c1cc(-c2ccc(F)cc2)[nH]c2ncc(Cl)cc12 | > 100
COC1C=CC(O)C(CO)O1 (configuration not stated) | > 100

Tested on: 786-0 renal
Assay: growth of human tumour cells (NCI), 48 h

Compound | TGI [µM]
O=C(Cc1ccccc1)NN1C(=O)C(Cl)C1c1cc(Br)ccc1O (configuration not stated) | > 100
Cc1cc(Cl)ccc1N=C1NC(=O)C(CC(=O)Nc2ccc([N+](=O)[O-])cc2[N+](=O)[O-])S1 (configuration not stated) | > 100
N#CC(NNC(=O)Cc1ccccc1)c1c(O)ccc2ccccc12 (configuration not stated) | 39.2

Source: PubChem BioAssay (NCI)
